Like-named read-outs stand apart in the source and are kept apart here.

Common to all, as to format: cell-based
The target of one assay is T1, hTLR7 (Homo sapiens, UniProt Q9NYK1).
T1 construct: host or cells: HEK-Blue hTLR7 reporter cells (HEK293-derived, own knowledge)
T1 sequence (Q9NYK1 27-1049): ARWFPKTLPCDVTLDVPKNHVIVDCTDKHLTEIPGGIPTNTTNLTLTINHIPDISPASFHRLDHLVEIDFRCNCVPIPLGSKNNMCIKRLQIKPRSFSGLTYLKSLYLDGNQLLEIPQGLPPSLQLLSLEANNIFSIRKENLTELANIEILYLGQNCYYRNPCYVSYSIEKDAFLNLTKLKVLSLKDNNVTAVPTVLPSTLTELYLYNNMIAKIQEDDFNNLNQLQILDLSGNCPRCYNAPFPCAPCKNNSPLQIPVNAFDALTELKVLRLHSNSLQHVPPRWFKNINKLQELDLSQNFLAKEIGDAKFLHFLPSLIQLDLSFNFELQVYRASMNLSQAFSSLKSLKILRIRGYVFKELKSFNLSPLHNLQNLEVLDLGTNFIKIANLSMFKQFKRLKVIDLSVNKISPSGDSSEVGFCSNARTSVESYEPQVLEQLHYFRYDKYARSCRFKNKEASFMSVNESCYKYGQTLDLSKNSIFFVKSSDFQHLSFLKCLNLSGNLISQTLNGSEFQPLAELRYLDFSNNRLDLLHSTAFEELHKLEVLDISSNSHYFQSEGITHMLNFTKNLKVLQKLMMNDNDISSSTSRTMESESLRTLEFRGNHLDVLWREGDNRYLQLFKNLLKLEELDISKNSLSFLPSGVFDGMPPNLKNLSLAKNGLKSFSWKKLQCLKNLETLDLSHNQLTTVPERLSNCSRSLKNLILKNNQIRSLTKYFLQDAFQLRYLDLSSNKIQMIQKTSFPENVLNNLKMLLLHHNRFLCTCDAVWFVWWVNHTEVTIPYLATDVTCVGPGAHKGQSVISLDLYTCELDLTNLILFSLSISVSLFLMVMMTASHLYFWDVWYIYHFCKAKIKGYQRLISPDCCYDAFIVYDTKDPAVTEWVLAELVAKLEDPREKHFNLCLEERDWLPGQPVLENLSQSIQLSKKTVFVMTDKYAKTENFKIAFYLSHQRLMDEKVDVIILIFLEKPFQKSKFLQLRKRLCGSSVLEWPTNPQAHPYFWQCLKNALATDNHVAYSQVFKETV
As to the kind of experiment: Reporter Gene Assay (RGA), HEK-Blue hTLR7 reporter cells, SEAP readout. The following applies: overnight incubation, SEAP absorbance 620 nm. In a few lines:
(§1)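 HEK-Blue reporter cells expressing human or mouse TLR7 (1.5×10^4 cells) were treated with an 11-point, 4-fold compound titration from 15 pM in HEK-Blue Detection medium. Incubation was overnight at 37° C with 5% CO2. Secreted embryonic alkaline phosphatase was read as absorbance at 620 nm.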

The next assay deals with T2, mTLR7 (Mus musculus, UniProt P58681).
T2 construct: host or cells: HEK-Blue mTLR7 reporter cells (HEK293-derived, own knowledge)
T2 sequence (P58681 27-1050): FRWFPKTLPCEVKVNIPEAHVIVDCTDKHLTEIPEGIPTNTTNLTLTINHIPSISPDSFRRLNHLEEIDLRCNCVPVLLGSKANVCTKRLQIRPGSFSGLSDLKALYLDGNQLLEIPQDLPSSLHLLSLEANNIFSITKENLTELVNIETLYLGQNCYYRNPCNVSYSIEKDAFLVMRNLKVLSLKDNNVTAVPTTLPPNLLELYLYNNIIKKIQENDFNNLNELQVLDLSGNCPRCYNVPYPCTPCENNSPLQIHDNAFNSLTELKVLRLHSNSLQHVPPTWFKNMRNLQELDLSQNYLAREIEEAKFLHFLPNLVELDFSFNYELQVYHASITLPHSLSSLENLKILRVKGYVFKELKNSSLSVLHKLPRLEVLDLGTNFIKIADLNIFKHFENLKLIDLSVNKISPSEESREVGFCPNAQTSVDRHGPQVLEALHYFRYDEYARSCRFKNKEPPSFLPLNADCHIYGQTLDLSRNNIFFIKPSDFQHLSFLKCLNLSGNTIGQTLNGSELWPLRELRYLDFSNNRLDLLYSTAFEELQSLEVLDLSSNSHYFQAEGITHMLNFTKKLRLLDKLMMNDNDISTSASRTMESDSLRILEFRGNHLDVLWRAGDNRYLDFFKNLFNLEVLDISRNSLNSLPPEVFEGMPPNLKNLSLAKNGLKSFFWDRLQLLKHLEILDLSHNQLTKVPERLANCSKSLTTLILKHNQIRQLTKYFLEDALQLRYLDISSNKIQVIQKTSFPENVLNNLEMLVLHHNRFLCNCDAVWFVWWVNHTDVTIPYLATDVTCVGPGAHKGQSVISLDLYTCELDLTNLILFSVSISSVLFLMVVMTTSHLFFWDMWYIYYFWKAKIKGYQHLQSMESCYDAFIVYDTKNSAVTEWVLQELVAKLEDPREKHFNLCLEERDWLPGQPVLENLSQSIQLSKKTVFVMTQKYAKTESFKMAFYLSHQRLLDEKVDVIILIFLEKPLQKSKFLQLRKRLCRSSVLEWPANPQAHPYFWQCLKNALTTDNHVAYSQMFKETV
Put plainly: Reporter Gene Assay (RGA), HEK-Blue mTLR7 reporter cells, SEAP readout. The following applies: overnight incubation, SEAP absorbance 620 nm. In a few lines:
as §1

Assay [1] concerns Human peripheral blood mononuclear cells (PBMCs). Put plainly: Human PBMC Assay, cytokine release (HTRF). The conditions noted are these: PBMC, 24 hours. In a few lines:
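Cryopreserved human PBMCs, rested overnight with 10 ng/ml hIL3, then 300,000 cells/well treated 24 h at 37° C with compound (4-fold, 11-point titration from 15 μM) in RPMI+10% FBS. Supernatant hIL6, hTNFα and hIFNα measured by HTRF; growth medium as negative control.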

The next assay concerns Mouse splenocytes. Put plainly: Mouse Splenocyte Assay, cytokine release (HTRF). The following applies: 24 hours, mIL6 in supernatant; for EC50: Splenocyte, read-out: Splenocyte IL6 EC50. In a few lines:
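Splenocytes from female balb/c nude mice, thawed, 100,000 per well in RPMI + 10% FBS. Exposed for 24 h at 37 °C to a 4-fold 11-point compound titration from 15 μM; supernatant mIL6 and mTNFα measured by HTRF.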

Where [2] appears, read: hIFNα in supernatant, EC50 values approximated and divided into groups, read-out: PBMC IFNa EC50.
The mark [3] stands for this setting: hIL6 in supernatant, read-out: PBMC IL6 EC50.

As to `CCOc1nc(N)c2nc(O)n(Cc3ccc(CNCc4ccc(CN(CC(=O)O)CC(=O)O)cc4)cc3OC)c2n1` [Compound 151, 2,2′-((4-(((4-((6-amino-2-ethoxy-8-hydroxy-9H-purin-9-yl)methyl)-3-methoxy-benzyl)amino)methyl)benzyl)azanediyl)diacetic Acid], the EC50 on hTLR7 is 12.1 nM; at mTLR7, 125 nM; in assay [1] (setting [2]) it was above 10 nM; in assay [1] (setting [3]) it was 59.2 nM; in the assay on Mouse splenocytes, 68.8 nM.
In the case of `CCOc1nc(N)c2nc(O)n(Cc3ccc(CN4CCNCC4)cc3F)c2n1` [Compound 152, 6-amino-2-ethoxy-9-(2-fluoro-4-(piperazin-1-ylmethyl)benzyl)-9H-purin-8-ol], the EC50 was 1.3 nM on hTLR7, 31.7 nM at mTLR7, 0.1 to 1 nM in assay [1] (setting [2]) and 17 nM in assay [1] (setting [3]). Also, in the assay with Mouse splenocytes, the “Splenocyte IL6 EC50 (nM)” value was “inactive”.
As to `CCOc1nc(N)c2nc(O)n(Cc3ccc(CN4CCC(N)CC4)cc3F)c2n1` [Compound 153, 6-amino-9-(4-((4-aminopiperidin-1-yl)methyl)-2-fluorobenzyl)-2-ethoxy-9H-purin-8-ol], the EC50 is 6.1 nM on hTLR7, 263 nM on mTLR7, above 10 nM in assay [1] (setting [2]) and 39 nM in assay [1] (setting [3]). In addition, in the assay on Mouse splenocytes, the “Splenocyte IL6 EC50 (nM)” value was “inactive”.
`CCCCOc1nc(N)c2nc(O)n(Cc3ccc(CN4CCNCC4)cc3OC)c2n1` [Compound 154, 6-amino-2-butoxy-9-(2-methoxy-4-(piperazin-1-ylmethyl)benzyl)-9H-purin-8-ol]: the EC50 on hTLR7 is 0.2 nM; at mTLR7, 2.9 nM; in assay [1] (setting [2]) it was above 10 nM; in assay [1] (setting [3]) it was 1970 nM; in the assay with Mouse splenocytes, 217 nM.
Take `CCCCOc1nc(N)c2nc(O)n(Cc3ccc(CN4CCC(N)CC4)cc3OC)c2n1` [Compound 155, 6-amino-9-(4-((4-aminopiperidin-1-yl)methyl)-2-methoxybenzyl)-2-butoxy-9H-purin-8-ol]: the EC50 was 0.2 nM on hTLR7; 9.2 nM at mTLR7; above 10 nM in assay [1] (setting [2]); 878 nM in assay [1] (setting [3]); 148 nM with Mouse splenocytes.
On to `CCCCOc1nc(N)c2nc(O)n(Cc3ccc(CN4CCC(CN)CC4)cc3OC)c2n1` [Compound 156, 6-amino-9-(4-((4-(aminomethyl)piperidin-1-yl)methyl)-2-methoxybenzyl)-2-butoxy-9H-purin-8-ol], for which the EC50 is 0.3 nM at hTLR7, 0.3 nM at mTLR7, above 10 nM in assay [1] (setting [2]) and 2.5 nM in the assay with Mouse splenocytes.
In the case of `CCCCOc1nc(N)c2nc(O)n(Cc3ccc(CN4CCC5(CCNCC5)CC4)cc3OC)c2n1` [Compound 157, 9-(4-((3,9-diazaspiro[5.5]undecan-3-yl)methyl)-2-methoxybenzyl)-6-amino-2-butoxy-9H-purin-8-ol], the EC50 was 0.9 nM on hTLR7; 3.7 nM at mTLR7; above 10 nM in assay [1] (setting [2]); 473 nM in assay [1] (setting [3]); 9.4 nM with Mouse splenocytes.
Consider `CCCCOc1nc(N)c2nc(O)n(Cc3ccc(CN4CCC(CCN)CC4)cc3OC)c2n1` [Compound 158, 6-amino-9-(4-((4-(2-aminoethyl)piperidin-1-yl)methyl)-2-methoxybenzyl)-2-butoxy-9H-purin-8-ol], for which the EC50 at hTLR7 is 0.1 nM; on mTLR7, 0.1 nM; in assay [1] (setting [2]) it was 1 to 10 nM; in the assay with Mouse splenocytes it was 3.2 nM.
With `CCCCOc1nc(N)c2nc(O)n(Cc3ccc(CNCC(C)(C)O)cc3OC)c2n1` [Compound 159, 6-amino-2-butoxy-9-(4-(((2-hydroxy-2-methylpropyl)amino)methyl)-2-methoxybenzyl)-9H-purin-8-ol], the EC50 was 1.6 nM on hTLR7, 2.9 nM on mTLR7, below 0.1 nM in assay [1] (setting [2]) and 2 nM in the assay with Mouse splenocytes.
`CCCCOc1nc(N)c2nc(O)n(Cc3ccc(CNCCCCN)cc3OC)c2n1` [Compound 160, 6-amino-9-(4-(((4-aminobutyl)amino)methyl)-2-methoxybenzyl)-2-butoxy-9H-purin-8-ol]: the EC50 is 7.2 nM at hTLR7; 10 nM at mTLR7; below 0.1 nM in assay [1] (setting [2]); 1080 nM in assay [1] (setting [3]); 6.6 nM in the assay on Mouse splenocytes.
Turning to `CCCCOc1nc(N)c2nc(O)n(Cc3ccc(CN)cc3OC)c2n1` [Compound 162, 6-amino-9-(4-(aminomethyl)-2-methoxybenzyl)-2-butoxy-9H-purin-8-ol], the EC50 on hTLR7 is 1.7 nM; on mTLR7, 2.3 nM; in assay [1] (setting [2]) it was 1 to 10 nM; in the assay on Mouse splenocytes, 1.3 nM.
Regarding `CCCCOc1nc(N)c2nc(O)n(Cc3ccc(CNC)cc3OC)c2n1` [Compound 163, 6-amino-2-butoxy-9-(2-methoxy-4-((methylamino)methyl)benzyl)-9H-purin-8-ol], the EC50 on hTLR7 was 0.7 nM; at mTLR7, 3.3 nM; in assay [1] (setting [2]), below 0.1 nM; in the assay with Mouse splenocytes it was 2.9 nM.
For `CCCCOc1nc(N)c2nc(O)n(Cc3ccc(CNC4CCC4)cc3OC)c2n1` [Compound 164, 6-amino-2-butoxy-9-(4-((cyclobutylamino)methyl)-2-methoxybenzyl)-9H-purin-8-ol], the EC50 at hTLR7 was below 0.1 nM; at mTLR7, below 0.1 nM; in assay [1] (setting [2]), below 0.1 nM; in assay [1] (setting [3]), 2540 nM; in the assay on Mouse splenocytes, 0.3 nM.
Turning to `CCCCOc1nc(N)c2nc(O)n(Cc3ccc(CN4CCNCC4)cc3)c2n1` [Compound 166, 6-amino-2-butoxy-9-(4-(piperazin-1-ylmethyl)benzyl)-9H-purin-8-ol], the EC50 at hTLR7 is below 0.1 nM; on mTLR7, 11 nM; in assay [1] (setting [2]) it was above 10 nM; in assay [1] (setting [3]) it was 1570 nM; in the assay on Mouse splenocytes it was 150 nM.
